Assays:
[1] = system: autophagy; assay: Autophagy (LC3 lipidation, RFP-GFP-LC3 autophagic flux); type: cell-based, human; conditions: LC3 Western blot and GFP-RFP-LC3 autophagic flux, HeLa cells
Experimental: Cells were washed twice with ice cold PBS and scraped into lysis buffer (50 mM Tris-HCl, pH 7.4, 130 mM NaCl, 0.5% NP-40) supplemented with freshly added protease inhibitor cocktail, 5 mM ATP, 10 mM iodoacetamide, and 5 mM N-ethyl maleimide. Protein concentration was measured by the BCA assay according to the manufacturer's instructions (Pierce, Rockford, IL). 30 μg of cellular protein were resolved via SDS-PAGE, transferred to a nitrocellulose membrane and immunoblotted with the appropriate antibody. Cells stably expressing the fusion of RFP-GFP-LC3 were treated as described and were visualized live, using high-throughput fluorescence microscopy (IXM-C, Molecular Devices) under controlled environment (21% O2, 5% CO2, 37° C.). Analysis of autophagic flux was made based on the differential signal in the green and red channels, as previously described [[…], et al. (2009). Cell 136, 521-534] Due to the instability of GFP in acidic pH, only RFP retains its fluorescence in the acidic lysosome, while both are visible in the autophagosome. The RFP: GFP puncta ratio is indicating the extent of autophagy activation, or flux. The figure presents mean+/-SD and Student's T-Test p-values of three replicates.

[2] = system: proteasome; assay: Live imaging of proteasome activity probe Me4BodipyFL-Ahx3Leu3VS; type: cell-based, human; conditions: addition to the starvation medium, HeLa cells
Experimental: Live cell proteasome activity was followed as previously described [C. R. Berkers et al., Mol Pharm 4, 739-748 (2007)]. In brief, Me4BodipyFL-Ahx3Leu3VS was added to the medium to a final concentration of 1 μM. Following incubation for 15 min, the cells were visualized by a Zeiss LSM 700 confocal microscope. In vitro proteasome activity assay was carried out as previously described [O. Braten et al., Proc. Natl. Acad. Sci. 113, E4639-47 (2016)]. In brief, cellular fractions were incubated at 37° C. for 30 min with 5 μM Suc-LLVY-AMC (Succinyl-Leu-Leu-Val-Tyr-amido-4-methylcoumarin) in a reaction buffer (40 mM Tris-HCl pH 7.2, 2 mM DTT, 5 mM MgCl2, 10 mM creatine phosphate, 0.1 mg/ml creatine phosphate kinase, 5 mM ATP). Reactions were stopped by adding 1% SDS, and fluorescence was measured at 360/460 nm (ex/em).

[3] = system: HeLa cells; assay: Amino acids level measurement (LC-MS); type: cell-based, human
Experimental: Metabolic analysis was carried out as previously described [G. M. MacKay et al., 1st Ed. (Elsevier Inc., 2015)]. Briefly, cells were rapidly washed 3 times with ice-cold PBS and extracted with an aqueous solution of 50% Methanol, and 30% Acetonitrile. Samples were centrifuged at 16,000×g for 10 min at 4° C., and the supernatants were analyzed using HPLC-MS (Q-Exactive Orbitrap Mass Spectrometer (Thermo Scientific) coupled to Thermo Scientific UltiMate 3000 HPLC system). The HPLC setup consisted of a ZIC-PHILIC column (SeQuant, 150×2.1 mm, 5 μm, Merck) with a ZIC-PHILIC guard column (SeQuant, 20×2.1 mm). The aqueous mobile phase solvent was 20 mM ammonium carbonate adjusted to pH 9.4 with 0.1% ammonium hydroxide. The organic mobile phase was acetonitrile. Amino acids and other metabolites were separated over a 15 min linear gradient from 80% organic to 80% aqueous. The column temperature was 45° C., the flow rate 200 μl/min, and the run time 27 min. All metabolites were detected across a mass range of 75-1,000 m/z using the Q-Exactive mass spectrometer at a resolution of 35,000 (at 200 m/z) with electrospray ionization and polarity switching mode. Mass accuracy obtained for all metabolites was below 5 ppm. Data were acquired with Thermo Xcalibur software. The peak areas of different amino acids were determined using Thermo TraceFinder software through which metabolites were identified by the exact mass of the singly charged ion and the known retention time on the HPLC column. Commercially available standard compounds had been analyzed before to determine ion masses and retention times on the ZIC-PHILIC column. Protein quantitation based on the Lowry method was performed for normalization. The figure presents mean+/−SD of three replicates.

[4] = target: T1, exportin1 (Homo sapiens, UniProt O14980); assay: Localization of exportin1 substrates (p65, APC, NES-GFP); type: cell-based; conditions: HeLa cells
T1 construct: endogenous in cells; host or cells: HeLa
T1 sequence (O14980 whole entry): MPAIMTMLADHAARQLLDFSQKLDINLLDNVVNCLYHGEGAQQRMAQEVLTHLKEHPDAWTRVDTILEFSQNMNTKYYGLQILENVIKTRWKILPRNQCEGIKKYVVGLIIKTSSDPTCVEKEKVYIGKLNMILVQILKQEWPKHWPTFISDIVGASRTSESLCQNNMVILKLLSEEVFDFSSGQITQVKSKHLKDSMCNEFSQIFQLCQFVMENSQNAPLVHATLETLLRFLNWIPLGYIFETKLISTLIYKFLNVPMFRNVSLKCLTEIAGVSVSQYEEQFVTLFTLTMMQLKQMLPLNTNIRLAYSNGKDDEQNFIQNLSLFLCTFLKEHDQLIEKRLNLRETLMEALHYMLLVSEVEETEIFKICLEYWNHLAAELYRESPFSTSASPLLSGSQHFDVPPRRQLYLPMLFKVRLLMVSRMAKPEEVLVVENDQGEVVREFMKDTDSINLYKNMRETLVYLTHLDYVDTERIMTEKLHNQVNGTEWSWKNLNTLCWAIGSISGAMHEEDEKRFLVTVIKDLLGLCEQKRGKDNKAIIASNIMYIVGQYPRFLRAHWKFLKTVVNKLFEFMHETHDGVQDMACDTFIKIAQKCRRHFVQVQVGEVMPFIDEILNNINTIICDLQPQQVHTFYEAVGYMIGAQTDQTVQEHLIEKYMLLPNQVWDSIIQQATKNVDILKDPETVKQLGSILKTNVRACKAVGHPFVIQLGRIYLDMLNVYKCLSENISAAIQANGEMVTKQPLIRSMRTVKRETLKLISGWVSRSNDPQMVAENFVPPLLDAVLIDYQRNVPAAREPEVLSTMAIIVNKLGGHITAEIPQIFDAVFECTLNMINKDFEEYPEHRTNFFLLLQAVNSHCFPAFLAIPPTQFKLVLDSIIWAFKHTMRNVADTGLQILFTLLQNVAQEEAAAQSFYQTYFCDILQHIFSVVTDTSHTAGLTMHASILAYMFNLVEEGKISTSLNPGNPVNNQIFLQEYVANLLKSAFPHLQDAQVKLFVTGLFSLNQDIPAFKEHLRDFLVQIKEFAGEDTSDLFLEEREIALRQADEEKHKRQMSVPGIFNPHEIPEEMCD
Experimental: Cells were seeded on glass cover slips for 36 h. Following the indicated treatments, they were fixed with 4% PFA for 15 min, washed with phosphate-buffered saline (PBS) and incubated in PBS containing 10% goat serum for 1 h at room temperature, followed by 2 h incubation with the indicated primary antibody. Following extensive wash with PBS, the fixed cells were incubated with the relevant secondary antibody for 1 h, washed and mounted. Images were acquired using Zeiss LSM 700 confocal microscope (Zeiss, Oberkochen, Germany).

[5] = system: proteasome; assay: Mass spectrometric analysis of proteasome sub-complexes' composition (assembly); type: cell-based, human; conditions: starvation plus substance
Experimental: Analysis of proteasome assembly and sub-complex composition was performed using the MCP20 antibody against the α6 proteasome subunit, as previously described using the MCP21 antibody against α2 [B. Fabre et al., Mol. Cell. Proteomics 12, 687-699 (2013)]. Briefly, following the indicated treatments, cell lysates were immunoprecipitated using the α6 antibody, and the precipitates were subjected to proteomic mass spectrometry. Intensities of the different proteasomal subunits were normalized according to the median of intensities measured for all 20S subunits. Ratios were calculated for each condition relative to untreated cells (control). The color scale represents Log 2 fold-change.

For CCC(=C/[C@H](C)C/C=C/C(C)=C/[C@@H](C)C(=O)[C@@H](C)[C@H](O)[C@@H](C)C/C(C)=C/C(=O)O)/C=C/[C@@H]1OC(=O)C=C[C@@H]1C [Leptomycin B], the autophagy under starvation [1] was “not inhibited”, the “localization of proteasomal activity (nucleus vs cytosol)” value [2] was “preventing the shift in its dominance from the nucleus to the cytosol” and the “gain in amino acids produced by Torin1” value ([3]; Torin1 plus LMB) was “significantly inhibited the gain in amino acids produced by Torin1”. The “level of Glu” value ([3]; addition of LMB to Torin1-treated cells) was “unaffected”, the “nuclear export/localization of exportin1 substrates p65 subunit of NF-κB and APC” value [4] was “inhibited nuclear export of two known substrates of exportin1” and the “localization of GFP fused to a nuclear export signal (NES)” value ([4]; 8 h) was “nuclear accumulation of GFP fused to a nuclear export signal (NES)”. For the same compound, the “effect of stress on proteasome assembly (20S and 19S sub-complexes)” value [5] was “did not reverse the effect of stress on proteasome assembly”.

From patent US20250325508A1, “MODULATORS OF PROTEASOME DYNAMICS AND/OR FUNCTION, COMPOSITIONS, METHODS, AND THERAPEUTIC USES THEREOF” (TECHNION RESEARCH & DEVELOPMENT FOUNDATION LIMITED, priority 2022, published 2025)
